Data reported in patent US20230332237A1, “Molecular Biomarkers for Predicting Patient Response to Steroid Therapy” (Florida State University Research Foundation, Inc., priority 2022, published 2023).

Tests used:
[1] = system: IGF1; conditions: treatment with prednisolone; literature refs 23, 24; cited from earlier work
[2] = system: IGFBP2; conditions: treatment with prednisolone; literature refs 23, 24; cited from earlier work
[3] = system: IGFBP1; conditions: treatment with prednisolone; literature refs 23, 24; cited from earlier work
[4] = system: steroid sensitive keloid fibroblasts; test: RNA-seq differential gene expression in steroid sensitive keloid fibroblasts following TA treatment; format: cell-based, human; conditions: 10 μM TA for 96 hrs vs DMSO, Padj≤0.05
Source text: (§1) Culture of keloid-derived primary fibroblasts. Surgically excised keloid and normal skin explants were obtained from patients under Florida State University institutional review board guidelines (Approved by the Human Subjects Committee (HSC) of the Florida State University Institutional Review Board; HSC numbers: 2016.19175 and 2017.22173). The explants were cut into small pieces, digested with trypsin, and washed with and cultured in Dulbecco's Modified Eagle Medium containing 10% fetal bovine serum and antibiotic/antimycotic solution maintained at 37.8° C. (98.68° F.) and 5% carbon dioxide. Outgrowth of only primary dermal fibroblasts occurred under our culture conditions, and these were recovered by trypsinization for use in experiments at low passage. The keloid fibroblasts are morphologically identical to commercially obtained normal primary human dermal fibroblasts (HDF; Cell Applications, Inc., San Diego, CA) used as our normal controls. […]
(§2) RNA extraction. […] The quality and quantity of each RNA sample was measured by Tapestation (Agilent). […]
(§3) RNA-seq. […] The RNA-seq libraries were sequenced on a NovaSeq 6000 sequencer (Illumina) to obtain 2×100 or 2×150-base reads. […] FASTQC was used to filter out reads of low to moderate quality. Paired-end reads were mapped to the GRCh38 reference genome using Salmon (28). The average mapped reads were 323M reads per sample and average mapped rate was 94.8%. […]

[5] = system: steroid resistant keloid fibroblasts; test: RNA-seq differential gene expression in steroid resistant keloid fibroblasts following TA treatment; format: cell-based, human; conditions: 10 μM TA for 96 hrs vs DMSO, Padj≤0.05
Source text: as §1, §2, §3

Row | SMILES | serum IGF1 concentration [1] | IGFBP2 [2] | IGFBP1 [3] | genes downregulated after TA treatment [4] | genes upregulated after TA treatment [4] | genes downregulated after TA treatment [5] | genes upregulated after TA treatment [5]
1 | C[C@]12C=CC(=O)C=C1CC[C@@H]1[C@@H]2[C@@H](O)C[C@@]2(C)[C@H]1CC[C@]2(O)C(=O)CO [prednisolone] | increases | reduces | reduces | – | – | – | –
2 | CC1(C)O[C@@H]2C[C@H]3[C@@H]4CCC5=CC(=O)C=C[C@]5(C)[C@@]4(F)[C@@H](O)C[C@]3(C)[C@]2(C(=O)CO)O1 [TA, Triamcinolone Acetonide] | – | – | – | 521 | 526 | 106 | 131
